Experiments:
asparaginase I [1] = assay: Effect of inducer and media composition on asparaginase I production; type: cell-based, Rhodococcus sp. DAP 96253; conditions: inducer 1000 ppm; for Asparaginase I levels, YEMEA - Glucose With Cobalt / Asparaginase I levels, YEMEA - Glucose Without Cobalt / Asparaginase I levels, YEMEA - Maltose With Cobalt / Asparaginase I levels, YEMEA - Maltose Without Cobalt: Rhodococcus sp. DAP 96253
Protocol: Testing was performed to evaluate the effect on asparaginase I activity based upon the inducer used. In particular, testing was performed using asparagine, glutamine, succinonitrile, and isovaleronitrile as inducers (all added at 1000 ppm each).

asparaginase I [2] = assay: Asparaginase I production on supplemented medium; type: cell-based; conditions: YEMEA, 7.5 g/L urea, 10 ppm cobalt
Protocol: The induction of asparaginase I production in various nitrile hydratase producing microorganisms was evaluated. All strains were grown on YEMEA medium containing 7.5 g/L of urea and 10 ppm cobalt (provided as cobalt chloride) supplemented with asparagine (ASN), glutamine (GLN), or both asparagine and glutamine. The asparagine and glutamine were added at a concentration of 3.8 mM. As a comparative, enzyme production was also evaluated with supplementation with acrylonitrile (AN), acrylamide (AMD) or acrylonitrile and acrylamide. Growth temperature was in the range of 26° C. to 30° C.

nitrile hydratase [3] = assay: Nitrile hydratase induction by inducers (Example 1); type: cell-based, Rhodococcus sp., strain DAP 96253; conditions: inducer 1000 ppm; for Nitrile Hydratase Activity: Rhodococcus sp. DAP 96253, YEMEA, 10 ppm cobalt, 7.5 g/L urea
Protocol: (§1) The induction of nitrile hydratase activity and amidase activity in Rhodococcus sp., strain DAP 96253, was evaluated using multiple types of inducers (1000 ppm). Three different samples were cultured in YEMEA medium containing 10 ppm cobalt and 7.5 g/L urea and supplemented with acrylonitrile, asparagine, or glutamine. The specific nitrile hydratase activity and the specific amidase activity in each sample was evaluated, and the results are provided below in Table 3, with activities provided in units/mg cdw (cell dry weight). One unit of nitrile hydratase activity relates to the ability to convert 1 μmol of acrylonitrile to its corresponding amide per minute, per milligram of cells (dry weight) at a pH of 7.0 and a temperature of 30° C. One unit of amidase activity relates to the ability to convert 1 μmol of acrylamide to its corresponding acid per minute, per milligram of cells (dry weight) pH of 7.0 and a temperature of 30° C.

amidase [4] = assay: Amidase induction by inducers (Example 1); type: cell-based, Rhodococcus sp., strain DAP 96253; conditions: for Amidase Activity: Rhodococcus sp. DAP 96253, YEMEA, 10 ppm cobalt, 7.5 g/L urea, inducer 1000 ppm
Protocol: as §1

[5] = system: Brevibacterium ketoglutaricum ATCC 21533; assay: Growth on supplemented YEMEA (visual grade); type: cell-based; design: key: (−) meaning no detectable growth; (+/−) meaning scant growth; (+) meaning little growth; (++) meaning good growth; (+++) meaning very good growth; (++++) meaning excellent growth; conditions: 30 °C, 7.5 g/L urea, 10 ppm cobalt, supplement 3.8 mM
Protocol: (§2) The relative growth of various nitrile hydratase producing microorganisms was evaluated. All strains were grown on YEMEA medium containing 7.5 g/L of urea and 10 ppm cobalt (provided as cobalt chloride) supplemented with asparagine (ASN), glutamine (GLN), or both asparagine and glutamine. The asparagine and glutamine were added at a concentration of 3.8 mM. Growth temperature was in the range of 26° C. to 30° C. Growth was evaluated by visual inspection and graded on the following scale: (−) meaning no detectable growth; (+/−) meaning scant growth; (+) meaning little growth; (++) meaning good growth; (+++) meaning very good growth; and (++++) meaning excellent growth.

[6] = system: Pseudomonas chloroaphis ATCC 13985; assay: Growth on supplemented YEMEA (visual grade); type: cell-based; design: key: (−) meaning no detectable growth; (+/−) meaning scant growth; (+) meaning little growth; (++) meaning good growth; (+++) meaning very good growth; (++++) meaning excellent growth; conditions: 26 °C, 7.5 g/L urea, 10 ppm cobalt, supplement 3.8 mM
Protocol: as §2

[7] = system: Pseudomonas chloroaphis ATCC 43051; assay: Growth on supplemented YEMEA (visual grade); type: cell-based; design: key: (−) meaning no detectable growth; (+/−) meaning scant growth; (+) meaning little growth; (++) meaning good growth; (+++) meaning very good growth; (++++) meaning excellent growth; conditions: 30 °C, 7.5 g/L urea, 10 ppm cobalt, supplement 3.8 mM
Protocol: as §2

[8] = system: Rhodococcus erythropolis ATCC 47072; assay: Growth on supplemented YEMEA (visual grade); type: cell-based; design: key: (−) meaning no detectable growth; (+/−) meaning scant growth; (+) meaning little growth; (++) meaning good growth; (+++) meaning very good growth; (++++) meaning excellent growth; conditions: 26 °C, 7.5 g/L urea, 10 ppm cobalt, supplement 3.8 mM
Protocol: as §2

[9] = system: Rhodococcus rhodochrous DAP 96622 ATCC 55898; assay: Growth on supplemented YEMEA (visual grade); type: cell-based; design: key: (−) meaning no detectable growth; (+/−) meaning scant growth; (+) meaning little growth; (++) meaning good growth; (+++) meaning very good growth; (++++) meaning excellent growth; conditions: 26 °C, 7.5 g/L urea, 10 ppm cobalt, supplement 3.8 mM
Protocol: as §2

[10] = system: Rhodococcus sp. DAP 96253 ATCC 55899; assay: Growth on supplemented YEMEA (visual grade); type: cell-based; design: key: (−) meaning no detectable growth; (+/−) meaning scant growth; (+) meaning little growth; (++) meaning good growth; (+++) meaning very good growth; (++++) meaning excellent growth; conditions: 30 °C, 7.5 g/L urea, 10 ppm cobalt, supplement 3.8 mM
Protocol: as §2

nitrile hydratase [11] = assay: Nitrile hydratase production on supplemented medium; type: cell-based; conditions: YEMEA, urea, cobalt, supplement 3.8 mM
Protocol: (§3) The induction of nitrile hydratase production and amidase production in various nitrile hydratase producing microorganisms was evaluated. All strains were grown on YEMEA medium containing 7.5 g/L of urea and 10 ppm cobalt (provided as cobalt chloride) supplemented with asparagine (ASN), glutamine (GLN), or both asparagine and glutamine. The asparagine and glutamine were added at a concentration of 3.8 mM. As a comparative, enzyme production with no supplementation was also tested. Growth temperature was in the range of 26° C. to 30° C.

amidase [12] = assay: Amidase production on supplemented medium; type: cell-based; conditions: YEMEA, urea, cobalt, supplement 3.8 mM
Protocol: as §3

[13] = Brevibacterium ketoglutaricum ATCC 21533, 30 °C
[14] = Pseudomonas chloroaphis ATCC 13985, 26 °C
[15] = Rhodococcus erythropolis ATCC 47072, 26 °C
[16] = Rhodococcus rhodochrous DAP 96622 ATCC 55898, 26 °C
[17] = Rhodococcus sp. DAP 96253 ATCC 55899, 30 °C
[18] = Pseudomonas chloroaphis ATCC 43051, 30 °C

CC(C)CC#N [Isovaleronitrile, isovaleronitrile, reference compound]
Asparaginase I levels, YEMEA - Glucose With Cobalt (asparaginase I [1]): 2.9 units/mg cell dry weight | Asparaginase I levels, YEMEA - Glucose Without Cobalt (asparaginase I [1]): 3.5 units/mg cell dry weight | Asparaginase I levels, YEMEA - Maltose With Cobalt (asparaginase I [1]): 7.0 units/mg cell dry weight | Asparaginase I levels, YEMEA - Maltose Without Cobalt (asparaginase I [1]): 6.8 units/mg cell dry weight

N#CCCC#N [Succinonitrile, succinonitrile, reference compound]
Asparaginase I levels, YEMEA - Glucose With Cobalt (asparaginase I [1]): 8.5 units/mg cell dry weight | Asparaginase I levels, YEMEA - Glucose Without Cobalt (asparaginase I [1]): 6.5 units/mg cell dry weight | Asparaginase I levels, YEMEA - Maltose With Cobalt (asparaginase I [1]): 10.0 units/mg cell dry weight | Asparaginase I levels, YEMEA - Maltose Without Cobalt (asparaginase I [1]): 11.0 units/mg cell dry weight | ability to induce asparaginase I activity (asparaginase I [1]): showed an ability to induce asparaginase I activity

C=CC(N)=O [AMD, acrylamide, reference compound]
Asparaginase I Level Based on Growth Medium Supplementation (asparaginase I [2]; [13]): 15.4 Units/mg cdw | Asparaginase I Level Based on Growth Medium Supplementation (asparaginase I [2]; [14]): 0 Units/mg cdw | Asparaginase I Level Based on Growth Medium Supplementation (asparaginase I [2]; [15]): 0 Units/mg cdw | Asparaginase I Level Based on Growth Medium Supplementation (asparaginase I [2]; [16]): 7.8 Units/mg cdw | Asparaginase I Level Based on Growth Medium Supplementation (asparaginase I [2]; [17]): 2 Units/mg cdw

NC(=O)CC[C@H](N)C(=O)O [Glutamine, glutamine]
Nitrile Hydratase Activity (nitrile hydratase [3]): 173.45 Units/mg cdw | nitrile hydratase induction compared with acrylonitrile (nitrile hydratase [3]): exceeds the ability of acrylonitrile to induce such activity | Amidase Activity (amidase [4]): 10.39 Units/mg cdw | amidase activity greater than that resulting from acrylonitrile (amidase [4]; relative to acrylonitrile as inducer, 1000 ppm): approximately 37% | Growth [5]: + | Growth [6]: + | Growth [7]: − | Growth [8]: ++ | Growth [9]: ++++ | Growth [10]: ++++ | Nitrile Hydratase Level Based on Growth Medium Supplementation (nitrile hydratase [11]; [13]): 37 Units/mg cdw | Nitrile Hydratase Level Based on Growth Medium Supplementation (nitrile hydratase [11]; [14]): 0 Units/mg cdw | Nitrile Hydratase Level Based on Growth Medium Supplementation (nitrile hydratase [11]; [18]): No | Nitrile Hydratase Level Based on Growth Medium Supplementation (nitrile hydratase [11]; [15]): 42 Units/mg cdw | Nitrile Hydratase Level Based on Growth Medium Supplementation (nitrile hydratase [11]; [16]): 160 Units/mg cdw | Nitrile Hydratase Level Based on Growth Medium Supplementation (nitrile hydratase [11]; [17]): 135 Units/mg cdw | Amidase Level Based on Growth Medium Supplementation (amidase [12]; [13]): 0 Units/mg cdw | Amidase Level Based on Growth Medium Supplementation (amidase [12]; [14]): 0 Units/mg cdw | Amidase Level Based on Growth Medium Supplementation (amidase [12]; [18]): No | Amidase Level Based on Growth Medium Supplementation (amidase [12]; [15]): 14 Units/mg cdw | Amidase Level Based on Growth Medium Supplementation (amidase [12]; [16]): 6 Units/mg cdw | Amidase Level Based on Growth Medium Supplementation (amidase [12]; [17]): 7 Units/mg cdw | Asparaginase I Level Based on Growth Medium Supplementation (asparaginase I [2]; [13]): 20.3 Units/mg cdw | Asparaginase I Level Based on Growth Medium Supplementation (asparaginase I [2]; [14]): 0 Units/mg cdw | Asparaginase I Level Based on Growth Medium Supplementation (asparaginase I [2]; [18]): No | Asparaginase I Level Based on Growth Medium Supplementation (asparaginase I [2]; [15]): 2 Units/mg cdw | Asparaginase I Level Based on Growth Medium Supplementation (asparaginase I [2]; [16]): 10 Units/mg cdw | Asparaginase I Level Based on Growth Medium Supplementation (asparaginase I [2]; [17]): 11.1 Units/mg cdw | Asparaginase I levels, YEMEA - Glucose With Cobalt (asparaginase I [1]): 1.9 units/mg cell dry weight | Asparaginase I levels, YEMEA - Glucose Without Cobalt (asparaginase I [1]): 1.5 units/mg cell dry weight | Asparaginase I levels, YEMEA - Maltose With Cobalt (asparaginase I [1]): 8.1 units/mg cell dry weight | Asparaginase I levels, YEMEA - Maltose Without Cobalt (asparaginase I [1]): 9.3 units/mg cell dry weight | ability to induce asparaginase I activity (asparaginase I [1]): showed an ability to induce asparaginase I activity

C=CC#N [Acrylonitrile, acrylonitrile, reference compound]
Nitrile Hydratase Activity (nitrile hydratase [3]): 162.23 Units/mg cdw | Amidase Activity (amidase [4]): 7.59 Units/mg cdw | Asparaginase I Level Based on Growth Medium Supplementation (asparaginase I [2]; [13]): 14.6 Units/mg cdw | Asparaginase I Level Based on Growth Medium Supplementation (asparaginase I [2]; [14]): 2 Units/mg cdw | Asparaginase I Level Based on Growth Medium Supplementation (asparaginase I [2]; [16]): 8.2 Units/mg cdw | Asparaginase I Level Based on Growth Medium Supplementation (asparaginase I [2]; [17]): 7.8 Units/mg cdw
